Experimental data published in US8236756B2, “Prodrugs cleavable by CD26” (Consejo Superior de Investigaciones Clentificas (CSIC), priority 2003, dated 2012).
One block for each molecule: values may come before it.

What was measured:
[1] = biological target: T1, purified CD26 (Homo sapiens, UniProt P27487); assay: Conversion of peptide prodrugs to parent compound by purified CD26 (HPLC); format: biochemical; settings: 50 μM, 5.7 mUnits purified CD26, 37° C.
T1 construct: made in house

[2] = test system: T-lymphocytic CEM cell suspensions; assay: Conversion of Val-Pro-NAP-TSAO to NAP-TSAO by CEM cell suspensions; format: cell-based, human; settings: ten million CEM cells in 200 μl PBS; 3 hrs; 37° C.
Method: The conversion of Val-Pro-NAP-TSAO (CAM-405) to NAP-TSAO (CAM-212) also efficiently occurred by carefully washed T-lymphocytic CEM cell suspensions in PBS. Ten million CEM cells suspended in 200 μl PBS hydrolysed the Val-Pro moiety from CAM-405 by 65% within 3 hrs of incubation at 37° C. This amount of hydrolysis was found both in the PBS supernatant and in the CEM cell extracts. Presumably, CD26 present in the cell membrane of CEM cells had cleaved-off the Val-Pro from CAM-405 after which both truncated and intact prodrug had been taken up by the lymphocytic cells to an equal extent.
(§1) The TSAO derivatives depicted in FIG. 1 can be synthesised as described below. GlyPro-pNA (GP-pNA), Diprotin A and Val-Pro were purchased from Sigma-Aldrich (Bornem, Belgium). CD26 was purified as described before [De Meester et al. J. Immunol. Methods (1996), 189: 99-105]. Foetal bovine serum (FBS) was obtained from Integro (Dieren, The Netherlands). Human serum represented a pooled serum that was derived from 10 healthy volunteers (blood donors). Human lymphocyte CEM cells were derived from the ATCC (Rockville, Md.).

[3] = biological target: T1, purified CD26; assay: Conversion of peptide prodrugs to parent compound by purified CD26 (HPLC); format: biochemical
Summary of the method: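 Peptide prodrugs of lipophilic nucleoside analogues were incubated with purified human CD26 at a final concentration of 1.5 milliUnits in PBS at pH 7.5, 37° C, in a 400 μl reaction started by enzyme addition. Samples were mixed with cold methanol to precipitate protein, centrifuged, and the supernatants analysed by reverse-phase HPLC to quantify conversion to the parent compound.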

[4] = Conversion of prodrugs to parent compound by bovine serum diluted in PBS; format: in vitro ADME
Method: (§2) Human and bovine serum were incubated for 3 hr, 6 hr and/or 24 hr at 37° C. in the presence of 50 μM CAM-405. The sera were diluted in PBS at a final concentration of 0.5, 1, 2.5 or 5%. […] The longer the incubation time, and the higher the serum concentration used, the faster the conversion of CAM-405 to CAM-212 occurred (FIG. 4). As also noted for CD26, HS- and BS-catalysed reaction slowed down in function of time, and was not linearly proportional with serum concentration (FIG. 4). These findings provide again evidence for a pronounced feed-back inhibition of dipeptidyl-peptidase activity in human and bovine serum by the released Val-Pro dipeptide. HS was more efficient in converting CAM-405 to CAM-212 than BS (FIG. 4). Since 1% HS is able to hydrolyse ˜20% of 50 μM CAM-405 within 3 hrs of incubation, it could be calculated that undiluted serum would have been able to convert this prodrug amount to its parent compound at a hundred fold higher speed, that is, within 1.8 min, provided that no feed-back inhibition would have occurred (as expected in the intact organism where release of Pro-Val would immediately result in disappearance from the plasma due to several mechanisms including organ uptake, renal excretion, etc.).
(§3) Ten percent BS or HS converted 40 to 70% of PI-2 to PI-1 in one hour (FIG. 10). Two percent BS and HS converted PI-2 to PI-1 by 8% and 25%, respectively. After 4 hrs, 35% and 95% of compound was hydrolyzed by BS and HS, respectively (FIG. 11).
as §1

[5] = Conversion of prodrugs to parent compound by human serum diluted in PBS; format: in vitro ADME
Method: as §2
Only a very limited amount of NAP-TSAO (but not D-Pro-NAP-TSAO) had been detected (FIG. 6).
as §3, §1

[6] = biological target: T2, CD26 (Homo sapiens, UniProt P27487); assay: Inhibition of CD26-catalysed conversion of GP-pNA to GP+pNA (pNA release, absorption at 400 nm); format: biochemical; settings: 50 μM GP-pNA
T2 construct: made in house
Method: The CD26 catalytic reaction was measured by recording the increase of absorption caused by pNA release at 400 nm.
To reveal whether CD26 recognizes such synthetic di/tripeptide derivatives of lipophilic nucleoside analogues as a substrate, 50 μM CAM-405 or CAM-431 was exposed to 5.7 mUnits of purified CD26, and the conversion of CAM-405 or CAM-431 to respectively CAM-212 or CAM-403 (Val-NAP-TSAO) was recorded in function of incubation time by HPLC analysis. […] The inhibitory activity of any dipeptide can be evaluated by the above mentioned assay.

[7] = Inhibition of GP-pNA conversion to pNA by 2% bovine serum; format: biochemical; settings: 2% BS in PBS
[8] = Inhibition of GP-pNA conversion to pNA by 2% human serum; format: biochemical; settings: 2% HS in PBS

T1 sequence (P27487 whole entry): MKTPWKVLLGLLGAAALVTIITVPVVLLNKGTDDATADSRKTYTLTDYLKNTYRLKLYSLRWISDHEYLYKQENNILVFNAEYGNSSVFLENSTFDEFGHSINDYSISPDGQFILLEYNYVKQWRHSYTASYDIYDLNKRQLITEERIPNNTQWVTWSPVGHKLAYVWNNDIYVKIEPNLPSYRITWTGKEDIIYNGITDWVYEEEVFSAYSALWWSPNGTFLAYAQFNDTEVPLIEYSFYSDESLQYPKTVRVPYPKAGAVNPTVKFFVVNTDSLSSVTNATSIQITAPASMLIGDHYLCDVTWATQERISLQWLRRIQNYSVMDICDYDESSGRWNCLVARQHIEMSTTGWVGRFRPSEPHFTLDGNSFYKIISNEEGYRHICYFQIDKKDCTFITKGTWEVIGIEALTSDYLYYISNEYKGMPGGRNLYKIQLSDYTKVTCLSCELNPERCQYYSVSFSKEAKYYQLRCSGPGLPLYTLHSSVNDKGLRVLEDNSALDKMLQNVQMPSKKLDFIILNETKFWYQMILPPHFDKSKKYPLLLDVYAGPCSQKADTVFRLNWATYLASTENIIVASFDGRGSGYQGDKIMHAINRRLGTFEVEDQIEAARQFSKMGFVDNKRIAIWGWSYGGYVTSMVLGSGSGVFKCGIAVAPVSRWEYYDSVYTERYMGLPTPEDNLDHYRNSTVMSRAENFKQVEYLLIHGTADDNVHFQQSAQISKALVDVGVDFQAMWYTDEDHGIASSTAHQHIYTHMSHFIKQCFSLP
T2 sequence (P27487 whole entry): as above

Hydrolysis of CAM-405, after 60 min [1]: ~67%
Conversion of CAM-405 to CAM-212, first 10 min ([3]; 50 μM, 5.7 mUnits purified CD26, 37° C., 10 min): at least 20%
Conversion of CAM-405 to CAM-212, within 30 min ([3]; 50 μM, 5.7 mUnits purified CD26, 37° C., 30 min): fifty
Conversion % to parent compound by purified CD26, 1 h ([3]; Table 1, purified CD26 1.5 mUnits, 1 h): 37%
Conversion % to parent compound by purified CD26, 4 h ([3]; Table 1, purified CD26 1.5 mUnits, 4 h): 62%
Conversion % to parent compound by purified CD26, 24 h ([3]; Table 1, purified CD26 1.5 mUnits, 24 h): 61%
% conversion to parent compound by purified CD26, 1 h ([3]; Table 2, purified CD26 1.5 mUnits, 1 h): 37%
% conversion to parent compound by purified CD26, 4 h ([3]; Table 2, purified CD26 1.5 mUnits, 4 h): 62%
% conversion to parent compound by purified CD26, 24 h ([3]; Table 2, purified CD26 1.5 mUnits, 24 h): 61%
Conversion of CAM-405 to CAM-212 by bovine serum, in words ([4]; 50 μM, 0.5-5% BS in PBS, 3, 6, 24 hr, 37° C.): efficiently converted
Calculated time for undiluted serum to convert this prodrug amount to parent compound ([5]; 10 μM, extrapolated from 1% human serum): less than 1.8 min
Conversion of CAM-405 to CAM-212 by human serum, in words ([5]; 50 μM, 0.5-5% HS in PBS, 3, 6, 24 hr, 37° C.): efficiently converted
Hydrolysis of CAM-405 by 1% human serum within 3 hrs ([5]; 50 μM, 1% HS in PBS, 3 hrs, 37° C.): ~20%
Calculated time for undiluted serum to convert this prodrug amount to parent compound ([5]; undiluted human serum, extrapolated, provided no feed-back inhibition): ≤ 1.8 min
Compound: Cc1cn(C2OC(CO[Si](C)(C)C(C)(C)C)C3(OS(=O)(=O)C=C3N)C2O[Si](C)(C)C(C)(C)C)c(=O)n(CCCNC(=O)[C@@H]2CCCN2C(=O)[C@@H](N)C(C)C)c1=O (stereo partly drawn) [CAM-405, H-Val-Pro-NAP-TSAO]
Hydrolysis of the Val-Pro moiety by CEM cells [2]: 65%

Inhibition of release of pNA from GP-pNA at 20 μM, in words ([6]; 20 μM): could inhibit
Competition with GP-pNA for CD26 at 100 μM, in words ([6]; 100 μM): efficiently competed
Conversion of Val-Pro-PI 1 (PI-2) to PI 1 by purified CD26 within 60 min, in words ([3]; purified CD26, within 60 min): completely converted
Compound hydrolyzed by BS after 4 hrs ([4]; 2% BS in PBS, 4 hrs): 35%
Conversion to PI 1 by two percent BS ([4]; 2% BS in PBS, time not restated (one hour in the sentence before)): 8%
Compound hydrolyzed by HS after 4 hrs ([5]; 2% HS in PBS, 4 hrs): 95%
Conversion to PI 1 by two percent HS ([5]; 2% HS in PBS, time not restated (one hour in the sentence before)): 25%
Compound: CC(C)CN(C[C@@H](O)[C@H](Cc1ccccc1)NC(=O)O[C@H]1CO[C@H]2OCC[C@H]21)S(=O)(=O)c1ccc(CNC(=O)[C@@H]2CCCN2C(=O)[C@@H](N)C(C)C)cc1 [Val-Pro-PI 1]
Inhibition of GP-pNA conversion to pNA by two percent BS, in words [7]: even more efficiently inhibited
Inhibition of HS-catalysed GP-pNA conversion to pNA, in words [8]: competitively inhibited
